According to ChEMBL document CHEMBL1126680, “Structure-activity relationships of 8-styrylxanthines as A2-selective adenosine antagonists” (J Med Chem, 1993):
pKi: −log10 of the molar value.

Molecular target: Adenosine A2 receptor (Rattus norvegicus, UniProt P29276+P30543)
Assay: Binding affinity against adenosine A2 receptor in rat brain using [3H]- CGS 21680 as radioligand
Format: tissue-based
Details: not given

Structure (SMILES)	Ki
Cn1c(=O)c2c(nc(CCc3cccc(N)c3)n2C)n(C)c1=O	18000 nM
Cn1c(=O)c2c(nc(/C=C/c3cccc(F)c3)n2C)n(C)c1=O	83 nM
COc1cccc2cc(-c3nc4c(c(=O)n(C)c(=O)n4C)n3C)oc12	4740 nM
CC(=O)Nc1cccc(/C=C/c2nc3c(c(=O)n(C)c(=O)n3C)n2C)c1	39 nM
Cn1c(=O)c2nc(/C=C/c3cccc([N+](=O)[O-])c3)[nH]c2n(C)c1=O	438 nM
COc1cccc(/C=C/c2nc3c(=O)n(C)c(=O)n(C)c3[nH]2)c1OC	600 nM
CCCn1c(=O)c2c(nc(/C=C/c3cccc([N+](=O)[O-])c3)n2C)n(CCC)c1=O	56.2 nM
Cn1c(=O)c2nc(/C=C/c3cccc(F)c3)[nH]c2n(C)c1=O	516 nM
COc1cccc2cc(-c3nc4c(=O)n(C)c(=O)n(C)c4[nH]3)oc12	3900 nM
Cn1c(=O)c2nc(/C=C/c3cc(F)cc(F)c3)[nH]c2n(C)c1=O	366 nM
CCCn1c(=O)c2c(nc(/C=C/c3cccc(N)c3)n2C)n(CCC)c1=O	18.9 nM
COc1cc(/C=C/c2nc3c(c(=O)n(C)c(=O)n3C)n2C)cc(OC)c1OC(C)=O	68 nM
CCCn1c(=O)c2nc(/C=C/c3ccc(OC)c(OC)c3OC)[nH]c2n(CCC)c1=O	64 nM
COc1ccc(/C=C/c2nc3c(=O)n(C)c(=O)n(C)c3[nH]2)cc1OC	1100 nM
COc1cc(/C=C/c2nc3c(=O)n(C)c(=O)n(C)c3[nH]2)cc(OC)c1	120 nM
COc1cc(/C=C/c2nc3c(c(=O)n(C)c(=O)n3C)n2C)cc(OC)c1OC/C=C/CNC(C)=O	216 nM
Cn1c(=O)c2nc(/C=C/c3cccc(N)c3)[nH]c2n(C)c1=O	202 nM
COc1cc(/C=C/c2nc3c(c(=O)n(C)c(=O)n3C)n2C)cc(OC)c1OCc1ccccc1	139 nM
CCCn1c(=O)c2nc(/C=C/c3cccc(F)c3)[nH]c2n(CCC)c1=O	153 nM
COc1ccc(/C=C/c2nc3c(=O)n(C)c(=O)n(C)c3[nH]2)c(OC)c1OC	1610 nM
COc1cc(/C=C/c2nc3c(c(=O)n(C)c(=O)n3C)n2C)cc(OC)c1OCCCCNC(=O)OC(C)(C)C	265 nM

Structure (SMILES)	Ki
COc1cc(/C=C/c2nc3c(c(=O)n(C)c(=O)n3C)n2C)cc(OC)c1OC/C=C/CN	228 nM
COc1cccc(/C=C/c2nc3c(c(=O)n(C)c(=O)n3C)n2C)c1OC	716 nM
CCCn1c(=O)c2c(nc(/C=C/c3cc(F)cc(F)c3)n2C)n(CCC)c1=O	53 nM
CCCn1c(=O)c2nc(/C=C/c3cccc(Cl)c3)[nH]c2n(CCC)c1=O	216 nM
Cn1c(=O)c2nc(/C(F)=C/c3ccccc3)[nH]c2n(C)c1=O	2110 nM
Cn1c(=O)c2c(nc(/C=C/c3cccc(N)c3)n2C)n(C)c1=O	57 nM
CCCn1c(=O)c2nc(/C=C/c3cc(OC)c(OC)cc3OC)[nH]c2n(CCC)c1=O	323 nM
CCCn1c(=O)c2c(nc(/C=C/c3cc(OC)cc(OC)c3)n2C)n(CCC)c1=O	24 nM
Cn1c(=O)c2nc(/C=C/c3ccccc3)[nH]c2n(C)c1=O	291 nM
Cn1c(=O)c2c(nc(/C=C/c3cccc(C(F)(F)F)c3)n2C)n(C)c1=O	134 nM
CCCn1c(=O)c2c(nc(/C=C/c3cccc(F)c3)n2C)n(CCC)c1=O	33 nM
CN(C)c1ccc(/C=C/c2nc3c(=O)n(C)c(=O)n(C)c3[nH]2)cc1	12800 nM
COc1ccc(/C=C/c2nc3c(c(=O)n(C)c(=O)n3C)n2C)cc1	327 nM
Cn1c(=O)c2c(nc(/C=C/c3cccc(NC(=O)CCC(=O)O)c3)n2C)n(C)c1=O	143 nM
Cn1c(=O)c2c(nc(/C=C/c3cc(F)cc(F)c3)n2C)n(C)c1=O	65 nM
CCn1c(/C=C/c2cc(OC)c(OC)c(OC)c2)nc2c1c(=O)n(C)c(=O)n2C	882 nM
COc1cc(/C=C/c2nc3c(c(=O)n(C)c(=O)n3C)n2C)cc(OC)c1O	450 nM
COc1ccc(/C=C/c2nc3c(c(=O)n(C)c(=O)n3C)n2C)cc1OC	197 nM
COc1ccccc1/C=C/c1nc2c(=O)n(C)c(=O)n(C)c2[nH]1	645 nM
COc1cc(/C=C/c2nc3c(c(=O)n(C)c(=O)n3C)n2C)cc(OC)c1OCCCCN	173 nM
COc1ccc(/C=C/c2nc3c(c(=O)n(C)c(=O)n3C)n2C)c(OC)c1OC	206 nM

Structure (SMILES)	Ki
COc1ccccc1/C=C/c1nc2c(c(=O)n(C)c(=O)n2C)n1C	267 nM
COc1cc(/C=C/c2nc3c(c(=O)n(C)c(=O)n3C)n2C)cc(OC)c1	75.3 nM
CCCn1c(=O)c2nc(/C=C/c3cc(OC)cc(OC)c3)[nH]c2n(CCC)c1=O	210 nM
COc1cc(/C=C/c2nc3c(c(=O)n(C)c(=O)n3C)n2C)cc(OC)c1OC/C=C/CNC(=O)OC(C)(C)C	353 nM
Cn1c(=O)c2nc(/C=C/c3cccc(C(F)(F)F)c3)[nH]c2n(C)c1=O	343 nM
CCn1c(=O)c2nc(/C=C/c3cc(OC)c(OC)c(OC)c3)[nH]c2n(CC)c1=O	269 nM
Cn1c(=O)c2c(nc(/C=C/c3cccc([N+](=O)[O-])c3)n2C)n(C)c1=O	195 nM
C#CCn1c(/C=C/c2cc(OC)c(OC)c(OC)c2)nc2c1c(=O)n(C)c(=O)n2C	525 nM
Cn1c(=O)c2c(nc(/C=C/c3cccc(NC(=O)OC(C)(C)C)c3)n2C)n(C)c1=O	784 nM
Cn1c(=O)c2c(nc(/C=C/c3cccc(N(C(=O)OC(C)(C)C)C(=O)OC(C)(C)C)c3)n2C)n(C)c1=O	740 nM
CCCn1c(=O)c2nc(/C=C/c3ccccc3)[nH]c2n(CCC)c1=O	44 nM
CCCn1c(=O)c2c(nc(/C=C/c3ccc(OC)c(OC)c3OC)n2C)n(CCC)c1=O	68.5 nM
CCCn1c(=O)c2nc(/C=C/c3cc(F)cc(F)c3)[nH]c2n(CCC)c1=O	346 nM
Cn1c(=O)c2nc(/C=C/c3cccc(O)c3)[nH]c2n(C)c1=O	303 nM
CN(C)c1ccc(/C=C/c2nc3c(c(=O)n(C)c(=O)n3C)n2C)cc1	9270 nM
CCCn1c(=O)c2c(nc(/C=C/c3cc(OC)c(OC)cc3OC)n2C)n(CCC)c1=O	327 nM
COc1ccc(/C=C/c2nc3c(=O)n(C)c(=O)n(C)c3[nH]2)cc1	472 nM
COc1cc(/C=C/c2nc3c(c(=O)n(C)c(=O)n3C)n2CCc2ccccc2)cc(OC)c1OC	14 nM
COc1cccc(/C=C/c2nc3c(c(=O)n(C)c(=O)n3C)n2C)c1	84.8 nM
COc1cccc(/C=C/c2nc3c(=O)n(C)c(=O)n(C)c3[nH]2)c1	378 nM

Molecular target: T1, Adenosine receptor A1 (Rattus norvegicus, UniProt P25099)
T1 sequence (P25099 whole entry): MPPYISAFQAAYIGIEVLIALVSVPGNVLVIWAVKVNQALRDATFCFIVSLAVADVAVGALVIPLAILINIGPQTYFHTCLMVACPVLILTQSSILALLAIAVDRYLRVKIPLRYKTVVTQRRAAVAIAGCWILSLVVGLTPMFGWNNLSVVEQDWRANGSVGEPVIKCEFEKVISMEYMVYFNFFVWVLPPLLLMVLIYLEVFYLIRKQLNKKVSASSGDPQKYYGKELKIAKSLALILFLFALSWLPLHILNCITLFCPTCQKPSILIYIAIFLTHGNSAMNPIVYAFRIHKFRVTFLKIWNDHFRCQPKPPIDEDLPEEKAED
Assay: Affinity against Adenosine A1 receptor in rat brain using [3H]- PIA as radioligand
Format: tissue-based
Details: not given

Structure (SMILES)	pKi
COc1cc(/C=C/c2nc3c(=O)n(C)c(=O)n(C)c3[nH]2)cc(OC)c1OC	5.64
COc1cccc2cc(-c3nc4c(=O)n(C)c(=O)n(C)c4[nH]3)oc12	5.75
C=CCn1c(=O)c2c(nc(/C=C/c3cc(OC)c(OC)c(OC)c3)n2C)n(CC=C)c1=O	5.71
COc1cc(/C=C/c2nc3c(c(=O)n(C)c(=O)n3C)n2C)cc(OC)c1OC	5.04
Cn1c(=O)c2c(nc(/C=C/c3cccc(NC(=O)OC(C)(C)C)c3)n2C)n(C)c1=O	4.63

Molecular target: T2, Adenosine receptor A1 (Rattus norvegicus) (UniProt P25099)
T2 sequence (whole entry): T1 sequence (P25099 whole entry)
Assay: Binding affinity against Adenosine A1 receptor in rat brain using [3H]- PIA
Format: tissue-based
Details: concentration not given here

Structure (SMILES)	inhibition
Cn1c(=O)c2c(nc(CCc3cccc(N)c3)n2C)n(C)c1=O	15%
COc1cc(/C=C/c2nc3c(c(=O)n(C)c(=O)n3C)n2C)cc(OC)c1OC/C=C/CNC(C)=O	17%
COc1ccc(/C=C/c2nc3c(=O)n(C)c(=O)n(C)c3[nH]2)c(OC)c1OC	26%
COc1cc(/C=C/c2nc3c(c(=O)n(C)c(=O)n3C)n2CCO)cc(OC)c1OC	26%
COc1cc(/C=C/c2nc3c(c(=O)n(C)c(=O)n3C)n2C)cc(OC)c1	12.5%
COc1cc(/C=C/c2nc3c(c(=O)n(C)c(=O)n3C)n2C)cc(OC)c1OC/C=C/CNC(=O)OC(C)(C)C	11%
CN(C)c1ccc(/C=C/c2nc3c(c(=O)n(C)c(=O)n3C)n2C)cc1	5.6%

Molecular target: Adenosine A2 receptor (Rattus norvegicus) (UniProt P29276+P30543)
Assay: Binding affinity against Adenosine A2 receptor in rat brain using [3H]- CGS 21680
Format: tissue-based
Details: concentration not given here

Structure (SMILES)	inhibition
COc1cc(/C=C/c2nc3c(c(=O)n(C)c(=O)n3C)n2CCO)cc(OC)c1OC	22%
